Patent publication US7776858B2, “Methods of treatment of chronic pain using eszopiclone” (Sepracor Inc., priority 2004, dated 2010)

How the values were obtained:
[1] = tested on: subjects with insomnia related to rheumatoid arthritis; experiment: Arthritis Self-Efficacy Scale, clinical study of eszopiclone 3 mg vs placebo; type: in vivo, human; settings: 3 mg nightly, visit 6 (EOS), ITT
Procedure: (§1) The study was aimed at observing the effect of eszopiclone 3 mg compared to placebo on daytime function in subjects with insomnia related to rheumatoid arthritis. The study was a multicenter, randomized, double-blind, placebo controlled, parallel group study.
A total of 153 subjects were randomized. Among them, 77 received 3 mg of eszopiclone (ESZ) nightly (at bedtime) for four weeks and 76 received matching placebo (PBO). […] In addition, subjects had insomnia symptoms including wake time after sleep onset (WASO) of ≧45 minutes, and total sleep time ≦6.5 hours. Diagnosis of rheumatoid arthritis predated the onset of insomnia symptoms.
(§2) During the double blind treatment, subjects were dosed with 3 mg eszopiclone (ESZ) or matching placebo (PBO) nightly (at bedtime) for four weeks. Data was analyzed with one-sided significance tests.

[2] = tested on: subjects with insomnia related to rheumatoid arthritis; experiment: Subject Pain Severity Assessment (0 to 10 scale), clinical study of eszopiclone 3 mg vs placebo; type: in vivo, human
Procedure: as §1
A total of 153 subjects were randomized. Among them, 77 received 3 mg of eszopiclone (ESZ) nightly (at bedtime) for four weeks and 76 received matching placebo (PBO). The discontinuation rates were low, 5.2% in the ESZ group and 9.2% in the PBO group. The patient population was predominantly female (87%) and Caucasian (84%). Mean age was 52, with a range of 27-64. […] In addition, subjects had insomnia symptoms including wake time after sleep onset (WASO) of ≧45 minutes, and total sleep time ≦6.5 hours. Diagnosis of rheumatoid arthritis predated the onset of insomnia symptoms.
as §2

conscious dogs = experiment: Dose escalation safety study, cardiovascular and respiratory parameters after acute intravenous administration; settings: acute intravenous, 3, 5 and 12 mg/kg
Procedure: To establish the safety of eszopiclone, a dose escalation study was carried out. Cardiovascular and respiratory parameters were evaluated in conscious dogs following acute intravenous administration of (R)-, (S)- or racemic zopiclone at three doses (3, 5 and 12 mg/kg).

mice = experiment: Antagonism of oxotremorine induced salivation; type: in vivo; settings: doses up to 300 mg/kg, p.o.
Procedure: Eszopiclone was evaluated for antimuscarinic activity in vivo.

[3] = 3 mg nightly, visit 5 (Week 4), ITT, scale 0 to 10

Question: Which “Arthritis Self-Efficacy Scale Function, Observed Value, Maximum” value [1] does the source give for CN1CCN(C(=O)O[C@H]2c3nccnc3C(=O)N2c2ccc(Cl)cn2)CC1 [Eszopiclone, (+) 6-(5-chloropyrid-2-yl)-5-(4-methylpiperazin-1-yl)carbonyloxy-7-oxo-6,7-dihydro-5H-pyrrolo[3-4-b]pyrazine] here?
Answer: Its value is 90.0.

Question: What about the “Arthritis Self-Efficacy Scale Function, Observed Value, Mean (SD)” value [1] of the same compound?
Answer: The value was 64.1 (20.5).

Question: What about the “Arthritis Self-Efficacy Scale Function, Observed Value, Median” value [1] of the same compound?
Answer: The value was 65.0.

Question: And the “Arthritis Self-Efficacy Scale Function, Observed Value, Minimum” value [1]?
Answer: The value was 23.0.

Question: And the “Arthritis Self-Efficacy Scale Other Symptoms, Change from Baseline, 25th Percentile” value [1]?
Answer: Its value is −2.5.

Question: What about the “Arthritis Self-Efficacy Scale Other Symptoms, Change from Baseline, 75th Percentile” value [1] of the same compound?
Answer: Its value is 10.0.

Question: And the “Arthritis Self-Efficacy Scale Other Symptoms, Change from Baseline, Maximum” value [1]?
Answer: The value was 39.0.

Question: What about the “Arthritis Self-Efficacy Scale Other Symptoms, Change from Baseline, Mean (SD)” value [1] of the same compound?
Answer: Its value is 3.8 (10.7).

Question: What about the “Arthritis Self-Efficacy Scale Other Symptoms, Change from Baseline, Median” value [1] of the same compound?
Answer: The value was 3.0.

Question: And the “Arthritis Self-Efficacy Scale Other Symptoms, Change from Baseline, Minimum” value [1]?
Answer: Its value is −24.0.

Question: And the “Arthritis Self-Efficacy Scale Other Symptoms, Observed Value, 25th Percentile” value [1]?
Answer: Its value is 31.0.

Question: What about the “Arthritis Self-Efficacy Scale Other Symptoms, Observed Value, 75th Percentile” value [1] of the same compound?
Answer: The value was 51.0.

Question: What about the “Arthritis Self-Efficacy Scale Other Symptoms, Observed Value, Maximum” value [1] of the same compound?
Answer: Its value is 59.0.

Question: And the “Arthritis Self-Efficacy Scale Other Symptoms, Observed Value, Mean (SD)” value [1]?
Answer: Its value is 40.6 (12.6).

Question: What about the “Arthritis Self-Efficacy Scale Other Symptoms, Observed Value, Median” value [1] of the same compound?
Answer: The value was 41.5.

Question: And the “Arthritis Self-Efficacy Scale Other Symptoms, Observed Value, Minimum” value [1]?
Answer: Its value is 8.0.

Question: And the “Arthritis Self-Efficacy Scale Overall, Change from Baseline, 25th Percentile” value [1]?
Answer: The value was −3.0.

Question: What about the “Arthritis Self-Efficacy Scale Overall, Change from Baseline, 75th Percentile” value [1] of the same compound?
Answer: Its value is 32.0.

Question: And the “Arthritis Self-Efficacy Scale Overall, Change from Baseline, Maximum” value [1]?
Answer: The value was 84.0.

Question: What about the “Arthritis Self-Efficacy Scale Overall, Change from Baseline, Mean (SD)” value [1] of the same compound?
Answer: Its value is 14.0 (30.5).

Question: And the “Arthritis Self-Efficacy Scale Overall, Change from Baseline, Median” value [1]?
Answer: The value was 12.5.

Question: What about the “Arthritis Self-Efficacy Scale Overall, Change from Baseline, Minimum” value [1] of the same compound?
Answer: The value was −89.0.

Question: And the “Arthritis Self-Efficacy Scale Overall, Observed Value, 25th Percentile” value [1]?
Answer: The value was 111.0.

Question: And the “Arthritis Self-Efficacy Scale Overall, Observed Value, 75th Percentile” value [1]?
Answer: The value was 163.0.

Question: What about the “Arthritis Self-Efficacy Scale Overall, Observed Value, Maximum” value [1] of the same compound?
Answer: Its value is 193.0.

Question: What about the “Arthritis Self-Efficacy Scale Overall, Observed Value, Mean (SD)” value [1] of the same compound?
Answer: The value was 134.5 (35.9).

Question: What about the “Arthritis Self-Efficacy Scale Overall, Observed Value, Median” value [1] of the same compound?
Answer: The value was 133.0.

Question: What about the “Arthritis Self-Efficacy Scale Overall, Observed Value, Minimum” value [1] of the same compound?
Answer: The value was 50.0.

Question: And the “Arthritis Self-Efficacy Scale Pain and Other Symptoms, Change from Baseline, 25th Percentile” value [1]?
Answer: The value was −5.0.

Question: What about the “Arthritis Self-Efficacy Scale Pain and Other Symptoms, Change from Baseline, 75th Percentile” value [1] of the same compound?
Answer: The value was 17.0.

Question: And the “Arthritis Self-Efficacy Scale Pain and Other Symptoms, Change from Baseline, Maximum” value [1]?
Answer: The value was 52.7.

Question: What about the “Arthritis Self-Efficacy Scale Pain and Other Symptoms, Change from Baseline, Mean (SD)” value [1] of the same compound?
Answer: Its value is 7.0 (18.5).

Question: And the “Arthritis Self-Efficacy Scale Pain and Other Symptoms, Change from Baseline, Median” value [1]?
Answer: The value was 7.5.

Question: What about the “Arthritis Self-Efficacy Scale Pain and Other Symptoms, Change from Baseline, Minimum” value [1] of the same compound?
Answer: The value was −44.0.

Question: And the “Arthritis Self-Efficacy Scale Pain and Other Symptoms, Observed Value, 25th Percentile” value [1]?
Answer: The value was 55.0.

Question: What about the “Arthritis Self-Efficacy Scale Pain and Other Symptoms, Observed Value, 75th Percentile” value [1] of the same compound?
Answer: The value was 88.0.

Question: And the “Arthritis Self-Efficacy Scale Pain and Other Symptoms, Observed Value, Maximum” value [1]?
Answer: Its value is 107.0.

Question: And the “Arthritis Self-Efficacy Scale Pain and Other Symptoms, Observed Value, Mean (SD)” value [1]?
Answer: The value was 70.0 (21.0).

Question: What about the “Arthritis Self-Efficacy Scale Pain and Other Symptoms, Observed Value, Median” value [1] of the same compound?
Answer: Its value is 71.0.

Question: What about the “Arthritis Self-Efficacy Scale Pain and Other Symptoms, Observed Value, Minimum” value [1] of the same compound?
Answer: The value was 27.0.

Question: What about the “Arthritis Self-Efficacy Scale Pain, Change from Baseline, 25th Percentile” value [1] of the same compound?
Answer: The value was −4.0.

Question: And the “Arthritis Self-Efficacy Scale Pain, Change from Baseline, 75th Percentile” value [1]?
Answer: The value was 8.0.

Question: And the “Arthritis Self-Efficacy Scale Pain, Change from Baseline, Maximum” value [1]?
Answer: Its value is 35.0.

Question: And the “Arthritis Self-Efficacy Scale Pain, Change from Baseline, Mean (SD)” value [1]?
Answer: Its value is 2.7 (10.5).

Question: What about the “Arthritis Self-Efficacy Scale Pain, Change from Baseline, Median” value [1] of the same compound?
Answer: The value was 2.0.

Question: And the “Arthritis Self-Efficacy Scale Pain, Change from Baseline, Minimum” value [1]?
Answer: Its value is −20.0.

Question: And the “Arthritis Self-Efficacy Scale Pain, Observed Value, 25th Percentile” value [1]?
Answer: The value was 22.0.

Question: And the “Arthritis Self-Efficacy Scale Pain, Observed Value, 75th Percentile” value [1]?
Answer: The value was 37.0.

Question: And the “Arthritis Self-Efficacy Scale Pain, Observed Value, Maximum” value [1]?
Answer: Its value is 49.0.

Question: What about the “Arthritis Self-Efficacy Scale Pain, Observed Value, Mean (SD)” value [1] of the same compound?
Answer: Its value is 29.2 (9.8).

Question: And the “Arthritis Self-Efficacy Scale Pain, Observed Value, Median” value [1]?
Answer: The value was 30.0.

Question: And the “Arthritis Self-Efficacy Scale Pain, Observed Value, Minimum” value [1]?
Answer: Its value is 9.0.

Question: What about the “Arthritis Self-Efficacy Scale Function, Change from Baseline, Least Squares Means (SE) [2]” value ([1]; ANCOVA) of the same compound?
Answer: The value was 6.2 (1.6).

Question: And the “Arthritis Self-Efficacy Scale Other Symptoms, Change from Baseline, Least Squares Means (SE) [2]” value ([1]; ANCOVA)?
Answer: The value was 3.3 (1.1).

Question: What about the “Arthritis Self-Efficacy Scale Overall, Change from Baseline, Least Squares Means (SE) [2]” value ([1]; ANCOVA) of the same compound?
Answer: Its value is 12.4 (2.9).

Question: What about the “Arthritis Self-Efficacy Scale Pain and Other Symptoms, Change from Baseline, Least Squares Means (SE) [2]” value ([1]; ANCOVA) of the same compound?
Answer: The value was 6.1 (1.8).

Question: And the “Arthritis Self-Efficacy Scale Pain, Change from Baseline, Least Squares Means (SE) [2]” value ([1]; ANCOVA)?
Answer: Its value is 2.4 (0.9).

Question: And the “effect on change from baseline to the end of study in the Subject Pain Severity Assessment” value ([2]; 3 mg nightly vs placebo)?
Answer: The value was “significant effect”.

Question: And the “Subject Pain Severity Assessment, Change from Baseline, Least Squares Means (SE) [2]” value ([2]; 3 mg nightly, visit 5 (Week 4), ITT, ANCOVA)?
Answer: Its value is −0.5 (0.2).

Question: And the “Subject Pain Severity Assessment, Change from Baseline, 25th Percentile” value [2, 3]?
Answer: Its value is −2.0.

Question: And the “Subject Pain Severity Assessment, Change from Baseline, 75th Percentile” value [2, 3]?
Answer: The value was 0.5.

Question: What about the “Subject Pain Severity Assessment, Change from Baseline, Maximum” value [2, 3] of the same compound?
Answer: Its value is 7.0.

Question: And the “Subject Pain Severity Assessment, Change from Baseline, Mean (SD)” value [2, 3]?
Answer: Its value is −0.5 (2.6).

Question: And the “Subject Pain Severity Assessment, Change from Baseline, Median” value [2, 3]?
Answer: The value was −1.0.

Question: What about the “Subject Pain Severity Assessment, Change from Baseline, Minimum” value [2, 3] of the same compound?
Answer: The value was −7.0.

Question: What about the “Subject Pain Severity Assessment, Observed Value, 25th Percentile” value [2, 3] of the same compound?
Answer: The value was 2.5.

Question: And the “Subject Pain Severity Assessment, Observed Value, 75th Percentile” value [2, 3]?
Answer: Its value is 7.0.

Question: And the “Subject Pain Severity Assessment, Observed Value, Maximum” value [2, 3]?
Answer: Its value is 10.0.

Question: And the “Subject Pain Severity Assessment, Observed Value, Mean (SD)” value [2, 3]?
Answer: Its value is 4.6 (2.7).

Question: And the “Subject Pain Severity Assessment, Observed Value, Median” value [2, 3]?
Answer: The value was 5.0.

Question: And the “Subject Pain Severity Assessment, Observed Value, Minimum” value [2, 3]?
Answer: The value was 0.0.

Question: What about the “Blood gases and blood chemistries (pH, pCO2, pO2, hematocrit, and lactate)” value (conscious dogs) of the same compound?
Answer: The value was “remained unaffected”.

Question: And the “cardiotoxicity by electrocardiogram (ECG)” value (conscious dogs)?
Answer: Its value is “No evidence of cardiotoxicity”.

Question: And the “effect on blood pressure” value (conscious dogs)?
Answer: The value was “dose dependent, transient decreases”.

Question: What about the “effect on heart rate” value (conscious dogs) of the same compound?
Answer: The value was “compensatory increase”.

Question: And the “antagonism of oxotremorine induced salivation” value (mice)?
Answer: The value was “neither (R)-, (S)-, nor racemic zopiclone significantly antagonized”.
